# Data reported in the supplement of paper PMC10307832.
# Columns and labels:
# Assay in all cases: relative viability (nuclei count vs DMSO), 5 days (fraction); higher = more cells survive
# [1] = compound: Cc1ccc(Nc2nccc(N(C)c3ccc4c(C)n(C)nc4c3)n2)cc1S(N)(=O)=O [Pazopanib] + Nc1ncn([C@H]2C[C@H](O)[C@@H](CO)O2)c(=O)n1 [Decitabine] (partner 2 µM)
# Procedure, shortened: (§1)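 Nuclei were stained with Hoechst during a one-step fixation (final 0.05% Triton X-100, 1% formaldehyde, 1 ug/ml Hoechst) carried out 5 days after dosing, then counted on 4× images. The cells, lung cancer lines in 1536-well plates, had been dosed by pin tool the day after seeding with one drug alone or a fixed anchor-drug dose plus five library-drug doses (not always all listed) in √10 steps. Relative viability is the nuclei count in treated wells divided by that in vehicle wells, and each value is the median of duplicate plates.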
# [2] = compound: Cc1ccc(Nc2nccc(N(C)c3ccc4c(C)n(C)nc4c3)n2)cc1S(N)(=O)=O [Pazopanib] + COc1cccc2cc(-c3nc([C@H]4CC[C@H](C(=O)O)CC4)n4ncnc(N)c34)[nH]c12 [OSI-027] (partner 0.5 µM)
# Procedure, shortened: as §1
# [3] = compound: Cc1ccc(Nc2nccc(N(C)c3ccc4c(C)n(C)nc4c3)n2)cc1S(N)(=O)=O [Pazopanib] + O=C(c1cc(Cc2n[nH]c(=O)c3ccccc23)ccc1F)N1CCN(C(=O)C2CC2)CC1 [Olaparib] (partner 8 µM)
# Procedure, shortened: as §1
# [4] = compound: Cc1ccc(C(=O)Nc2ccc(CN3CCN(C)CC3)c(C(F)(F)F)c2)cc1C#Cc1cnc2cccnn12 [Ponatinib] + Nc1nc2[nH]cc(CCc3ccc(C(=O)N[C@@H](CCC(=O)O)C(=O)O)cc3)c2c(=O)[nH]1 [Pemetrexed] (partner 0.2 µM)
# Procedure, shortened: as §1
Cell Line,relative viability ([1]; first compound 0.01 µM),relative viability ([1]; first compound 0.03162 µM),relative viability ([1]; first compound 0.1 µM),relative viability ([1]; first compound 0.3162 µM),relative viability ([1]; first compound 1 µM),relative viability ([2]; first compound 0.01 µM),relative viability ([2]; first compound 0.03162 µM),relative viability ([2]; first compound 0.1 µM),relative viability ([2]; first compound 0.3162 µM),relative viability ([2]; first compound 1 µM),relative viability ([3]; first compound 0.01 µM),relative viability ([3]; first compound 0.03162 µM),relative viability ([3]; first compound 0.1 µM),relative viability ([3]; first compound 0.3162 µM),relative viability ([3]; first compound 1 µM),relative viability ([4]; first compound 0.002 µM),relative viability ([4]; first compound 0.006325 µM),relative viability ([4]; first compound 0.06325 µM),relative viability ([4]; first compound 0.2 µM)
HCC-44,0.913,0.949,0.941,0.984,1,0.405,0.572,0.584,0.68,0.677,0.991,0.995,1.02,0.995,1,0.636,0.653,0.688,0.622
HCC-827,0.333,0.322,0.293,0.355,0.348,0.775,0.752,0.784,0.801,0.731,0.675,0.644,0.691,0.706,0.673,0.234,0.304,0.288,0.247
NCI-H1623,–,–,–,–,–,0.415,0.401,0.421,0.448,0.411,–,–,–,–,–,–,–,–,–
NCI-H2405,0.724,0.774,0.8,0.858,0.814,0.628,0.67,0.72,0.656,0.736,0.824,0.89,0.958,0.907,0.983,0.913,1.06,1.1,1.01
PC-3 [JPC-3],–,0.885,0.773,0.916,0.787,0.929,0.806,0.747,0.756,0.661,–,1.15,1.18,1.11,1.02,–,1.09,1.12,1.1
NCI-H1651,0.543,0.644,0.644,0.552,0.656,0.66,0.742,0.728,0.715,0.871,0.18,0.192,0.176,0.202,0.188,0.558,0.627,0.614,0.588
HARA,0.484,0.615,0.6,0.543,0.602,0.581,0.583,0.504,0.642,0.6,0.938,0.778,0.958,1.26,0.795,0.262,0.23,0.246,0.282
NCI-H1650,0.431,0.419,0.464,0.405,0.603,0.727,0.759,0.744,0.803,0.699,0.895,0.838,0.723,0.852,0.844,0.345,0.334,0.44,0.36
NCI-H1793,–,0.516,0.488,0.506,0.627,–,0.254,0.274,0.354,0.273,–,0.8,1.03,0.906,1.05,0.792,0.914,0.774,0.671
